Marks after values point to notes of the source that are not given here.
Tests used:
[1] = molecular target: human μ opioid receptor (Homo sapiens, UniProt P35372); type: biochemical
[2] = test system: rats; assay: Tail-flick test in the rat after sc administration; type: in vivo; details: pair 15 vs 16
[3] = sc administration; cited from earlier work
[4] = test system: rats; details: rat, cited from earlier work
[5] = test system: μ opioid receptor; details: first value of μ:δ:κ; cited from earlier work
[6] = test system: δ opioid receptor; details: second value of μ:δ:κ; cited from earlier work
[7] = test system: κ opioid receptor; details: third value of μ:δ:κ; cited from earlier work

human μ opioid receptor, sequence (P35372 whole entry): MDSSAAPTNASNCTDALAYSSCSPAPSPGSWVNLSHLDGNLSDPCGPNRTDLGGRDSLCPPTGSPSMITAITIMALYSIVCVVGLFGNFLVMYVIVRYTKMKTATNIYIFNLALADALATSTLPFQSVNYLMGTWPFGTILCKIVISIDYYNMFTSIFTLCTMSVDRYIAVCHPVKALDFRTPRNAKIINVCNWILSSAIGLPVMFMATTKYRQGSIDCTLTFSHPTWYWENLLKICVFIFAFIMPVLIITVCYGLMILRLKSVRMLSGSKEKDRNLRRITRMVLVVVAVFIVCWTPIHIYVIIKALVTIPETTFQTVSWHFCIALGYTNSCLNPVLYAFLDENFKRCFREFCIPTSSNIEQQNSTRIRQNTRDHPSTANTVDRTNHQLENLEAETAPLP

| Structure (SMILES) | functional character at the μ receptor [1] | ED50 (nmol/kg, sc), time after drug administration 0.5 h [4] [nmol/kg] | ED50 (nmol/kg, sc), time after drug administration 1 h [4] | ED50 (nmol/kg, sc), time after drug administration 2 h [4] [nmol/kg] | other results |
| --- | --- | --- | --- | --- | --- |
| Cl.Cl.O=C(O)CN[C@H]1CC[C@@]2(OCCCc3ccccc3)[C@H]3Cc4ccc(O)c5c4[C@@]2(CCN3CC2CC2)[C@H]1O5 [Compound 17, [[17-Cyclopropylmethyl-4,5α-epoxy-3-hydroxy-14β-[(3-phenylpropyl)oxy]morphinan-6α-yl]amino]acetic Acid Dihydrochloride] | highly potent partial agonists | – | – | – | – |
| CC(C)(C)OC(=O)CN[C@@H]1CC[C@@]2(OCCCc3ccccc3)[C@H]3Cc4ccc(O)c5c4[C@@]2(CCN3CC2CC2)[C@H]1O5 [Compound 16] | – | – | – | – | difference in the potency between α and β epimers [2]: 13 fold |
| Cl.Cl.O=C(O)CN[C@@H]1CC[C@@]2(OCCCc3ccccc3)[C@H]3Cc4ccc(O)c5c4[C@@]2(CCN3CC2CC2)[C@H]1O5 [Compound 18, [[17-Cyclopropylmethyl-4,5α-epoxy-3-hydroxy-14β-[(3-phenylpropyl)oxy]morphinan-6β-yl]amino]acetic Acid Dihydrochloride] | highly potent partial agonists | – | – | – | – |
| CO[C@@]12CC[C@@H](NCC(=O)O)[C@@H]3Oc4c(O)ccc5c4[C@@]31CCN(C)[C@@H]2C5 [Compound 10, 2-[(4,5α-Epoxy-3-hydroxy-14β-methoxy-17-methylmorphinan-6β-yl)amino] acetic Acid] | – | 50.8 | 29.0 ^c nmol/kg | 43.3 | antinociceptive potency lower than that of 14-O-methyloxymorphone (1) [3]: 2 fold |
| O=C1CC[C@@]2(O)[C@H]3Cc4ccc(O)c5c4[C@@]2(CCN3CC2CC2)[C@H]1O5 [naltrexone] | – | – | – | – | binding affinity μ [5]: 0.20; binding affinity δ [6]: 8.70; binding affinity κ [7]: 0.40 |
| CO[C@@]12CC[C@H](NCC(=O)O)[C@@H]3Oc4c(O)ccc5c4[C@@]31CCN(C)[C@@H]2C5 [Compound 9] | – | 137 | 58.5 ^c nmol/kg | 143 | ED50 (nmol/kg, sc), time after drug administration 3 h ([4]; 3 h): 437 nmol/kg |
